Data set [1] has as its system melanoma cell lines (A375, WM-164, B16-F1) and prostate cancer cell lines (LNCaP, DU 145, PC-3, PPC-1). As to the kind of experiment: SRB cytotoxicity, melanoma and prostate cell panel (averages). Type of data set: cell-based. To be noted: for antiproliferative activity: summary of Table 3. The source says:
(§1) The only compounds which belong to the invention are the ones falling under the scope of formula (XI).

In data set [2] the test system is B16-F1. As to the kind of experiment: SRB cell growth inhibition (cytotoxicity) assay. Type of data set: cell-based, mouse.
Excerpt: as §1

Data set [3] has as its system PPC-1. As to the kind of experiment: cells. As to conditions: Homo sapiens.
In data set [4] the test system is A375. As to the kind of experiment: SRB cell growth inhibition (cytotoxicity) assay. It counts as cell-based, human.
Data set [5] concerns LNCaP. As to the kind of experiment: cells. As to conditions: Homo sapiens.
In data set [6] the test system is PC-3. As to the kind of experiment: cells. To be noted: Homo sapiens.
Excerpt: as §1
Cells were stained with SRB solution.
Cells. […] Cells between the third and fifth passages were used for experiments.
Cell growth inhibition studies. […] Cells were stained with sulphorhodamine B (SRB) solution.

Data set [7] has as its system DU 145. As to the kind of experiment: cells. As to conditions: Homo sapiens.
For data set [8] the following is noted: rat; for CL (mL/min/kg), systemic clearance / Vss (L/kg), volume of distribution: IV, […] (1h, 2r), 5 mg/kg (5Ha, 5Hc); for F (%), percent oral bioavailability: Table 4, 10 mg/kg.
For data set [9], the system named is WM-164. As to the kind of experiment: SRB cell growth inhibition (cytotoxicity) assay. It counts as cell-based, human. As to conditions: Homo sapiens.
Where [10] appears, read: Mus musculus, B16-F1; read-out: IC50 ± SEM (nM), B16-F1.
[11] abbreviates: PPC-1, 96 h, read-out: IC50 ± SEM (nM), PPC-1.
Where [12] appears, read: Homo sapiens, A-375, 96 h; read-out: IC50 ± SEM (nM), A375.
Where [13] appears, read: 96 h, read-out: IC50 ± SEM (nM), LNCaP.
The mark [14] stands for this setting: PC-3, 96 h, read-out: IC50 ± SEM (nM), PC-3.
[15] abbreviates: Prostate cell, Table 2, read-out: IC50 range over tested melanoma and prostate cell lines.
[16] abbreviates: DU-145, 96 h, read-out: IC50 ± SEM (nM), DU 145.
[17] abbreviates: Mus musculus; B16-F1 melanoma cells, 48 h, SRB; read-out: IC50 ± SEM (nM) B16-F1.
The mark [18] stands for this setting: Homo sapiens, A-375; A375 melanoma cells, 48 h, SRB; read-out: IC50 ± SEM (nM) A375.
Where [19] appears, read: WM164 melanoma cells, 48 h, SRB, read-out: IC50 ± SEM (nM) WM164.
[20] abbreviates: DU-145, 96 h, read-out: IC50 ± SEM (nM) Du 145.
The mark [21] stands for this setting: ABI compounds, Tables 11-13, read-out: IC50 (average over cell lines).
[22] abbreviates: Prostate cell, read-out: IC50 (average over cell lines).
Setting [23] is: Mus musculus, B16-F1; Table 6A; read-out: IC50 (nM), B16-F1.
The mark [24] stands for this setting: PPC-1, read-out: IC50 (nM), PPC-1.
Where [25] appears, read: Homo sapiens, A-375; Table 6A; read-out: IC50 (nM), A375.
The mark [26] stands for this setting: PC-3, read-out: IC50 (nM), PC-3.
Setting [27] is: WM164, Table 6A, read-out: IC50 (nM), WM164.
[28] abbreviates: DU-145, read-out: IC50 (nM), DU 145.

Where a name gives a salt, the structure may show the parent alone. Read-outs that look alike come from different tables or passages of the source. A value given as a limit tells only on which side of the number the result lay.

From patent EP2608671B1, “COMPOUNDS FOR TREATMENT OF CANCER” (Gtx, Inc., priority 2010, dated 2012) come the findings set out here.

As for `COc1cc(C(=NN)c2csc(-c3ccccc3)n2)cc(OC)c1OC` (mixture of isomers) [2d], the half-inhibitory concentration (IC50) in data set [1] (Table 2, read-out: IC50 range over tested melanoma and prostate cell lines) is around 1000 nM.
`COc1cc(/C(=N/O)c2csc(-c3ccccc3)n2)cc(OC)c1OC` [2e-cis, (Z)-(2-Phenylthiazol-4-yl)(3,4,5-trimethoxyphenyl)methanone oxime]: the concentration for half-maximal inhibition (IC50) was 300 ± 100 nM in data set [2] (setting [10]); 160 nM in data set [3] (setting [11]); 200 ± 100 nM in data set [4] (setting [12]); 189 nM in data set [5] (setting [13]); 120 nM in [6] (setting [14]); 100 to 300 nM in data set [1] (setting [15]). Besides, the half-maximal inhibitory concentration (IC50) in data set [7] (setting [16]) stood at 102 nM.
For `COc1cc(/C(=N\O)c2csc(-c3ccccc3)n2)cc(OC)c1OC` [2e-trans, (E)-(2-Phenylthiazol-4-yl)(3,4,5-trimethoxyphenyl)methanone oxime], the IC50 is 11400 ± 2100 nM in [2] (setting [10]); above 10000 nM in data set [3] (setting [11]); 7800 ± 1200 nM in data set [4] (setting [12]); above 10000 nM in data set [5] (setting [13]); above 10000 nM in data set [6] (setting [14]); above 10000 nM in data set [1] (setting [15]). The half-maximal inhibitory concentration (IC50) in [7] (setting [16]) was above 10000 nM.
Take `CNCc1ccc(-c2nc(C(=O)c3cc(OC)c(OC)c(OC)c3)cs2)cc1.Cl` [2s, (2-(4-((Methylamino)methyl)phenyl)thiazol-4-yl)(3,4,5-trimethoxyphenyl)methanone hydrochloride]: the IC50 is above 10000 nM in [2] (Mus musculus, B16-F1, read-out: IC50 ± SEM (nM), B16-F1); around 1000 nM in [3] (setting [11]); above 10000 nM in [4] (Homo sapiens, A-375, 96 h, read-out: IC50 ± SEM (nM), A375); 114 ± 80 nM in data set [5] (setting [13]); above 10000 nM in data set [6] (setting [14]); around 10000 nM in [7] (setting [16]). Besides, the “antiproliferative activity” value in [1] is “abrogated activity”.
`COc1cc(C(=O)c2csc(-c3ccc(CN(C)C)cc3)n2)cc(OC)c1OC.Cl` [2u, (2-(4-((Dimethylamino)methyl)phenyl)thiazol-4-yl)(3,4,5-trimethoxyphenyl)methanone hydrochloride]: the IC50 in data set [2] (setting [10]) is above 10000 nM; in [3] (setting [11]) it was above 10000 nM; in data set [4] (setting [12]) it was above 10000 nM; in data set [5] (setting [13]), 1020 ± 200 nM; in [6] (setting [14]), above 10000 nM; in data set [7] (setting [16]) it was above 10000 nM. Further, the “antiproliferative activity” value in [1] is “abrogated activity”.
As to `COc1cc(C(=O)c2csc(Nc3ccccc3)n2)cc(OC)c1OC.Cl` [5Ha, (2-(Phenylamino)thiazol-4-yl)(3,4,5-trimethoxyphenyl)methanone hydrochloride salt], in data set [8], the “CL (mL/min/kg), systemic clearance” value is reported as 17 ± 3 mL/min/kg; the “Vss (L/kg), volume of distribution” value amounted to 1.4 ± 0.2 L/kg; the “F (%), percent oral bioavailability” value amounted to 11%.
Turning to `COc1cc(C(=O)c2csc(Nc3ccc(F)cc3)n2)cc(OC)c1OC.Cl` [5Hc, (2-(p-Fluorophenylamino)thiazol-4-yl)(3,4,5-trimethoxyphenyl)methanone hydrochloride salt], in data set [8], the “CL (mL/min/kg), systemic clearance” value came out at 13 ± 2 mL/min/kg; the “Vss (L/kg), volume of distribution” value amounted to 1.4 ± 0.2 L/kg; the “F (%), percent oral bioavailability” value was 21%. The “increased exposure (AUC) by the oral route as compared to 1h” value in data set [8] (in vivo, po) is given as “more than 4.3 fold”.
Turning to `O=C(c1ccc(F)cc1)c1cn(S(=O)(=O)c2ccccc2)c(-c2ccc(OCc3ccccc3)cc2)n1` [11jb, (2-(4-(benzyloxy)phenyl)-1-(phenylsulfonyl)-1H-imidazol-4-yl)(4-fluorophenyl)methanone], the IC50 in data set [2] (setting [17]) was 110 ± 15 nM; in data set [3] (setting [11]), 38 ± 0.2 nM; in data set [4] (setting [18]), 64 ± 7 nM; in [5] (setting [13]), 35 ± 1 nM; in data set [6] (setting [14]), 75 ± 0.5 nM; in [1] (Prostate cell, ABI compounds, Tables 11-13, read-out: IC50 (average over cell lines)) it was 61 nM. Moreover, the values for the IC50 in [9] (setting [19]) and in [7] (setting [20]) were 48 ± 5 nM and 58 ± 1 nM, respectively.
With `COc1cc(C(=O)c2c[nH]c(-c3ccccc3)n2)cc(OC)c1OC` [12aa, (2-phenyl-1H-imidazol-4-yl)(3,4,5-trimethoxyphenyl)methanone], the IC50 in data set [2] (Mus musculus, B16-F1, 48 h, read-out: IC50 (nM), B16-F1) worked out at 120 nM; in data set [3] (PPC-1, 96 h, read-out: IC50 (nM), PPC-1) it was 133 nM; in [4] (Homo sapiens, A-375, 48 h, read-out: IC50 (nM), A375) it was 160 nM; in data set [5] (96 h, read-out: IC50 (nM), LNCaP) it was 152 nM; in data set [6] (PC-3, 96 h, read-out: IC50 (nM), PC-3), 288 nM; in data set [1] (setting [21]), 160 nM. Also, the IC50 in data set [9] (WM164, 48 h, read-out: IC50 (nM), WM164) turned out to be 10 nM; in data set [7] (DU-145, 96 h, read-out: IC50 (nM), Du 145), 196 nM.
Turning to `Cc1ccc(-c2nc(C(=O)c3ccc(F)cc3)c[nH]2)cc1` [12db-HCl, (4-fluorophenyl)(2-(p-tolyl)-1H-imidazol-4-yl)methanone HCl salt], the IC50 in data set [4] (Homo sapiens, A-375, 48 h, read-out: IC50 ± SEM (nM) A375, A375 melanoma cells, 48 h, SRB) came out at 108 ± 11 nM; in [1] (ABI compounds, Tables 11-13, HCl salt, read-out: IC50 (average over cell lines)) it was 172 nM.
For the compound `COc1cc(C(=O)c2c[nH]c(-c3cc(OC)c(OC)c(OC)c3)n2)cc(OC)c1OC` [12ea, (3,4,5-trimethoxyphenyl)(2-(3,4,5-trimethoxyphenyl)-1H-imidazol-4-yl)methanone], the IC50 in data set [3] (setting [11]), in data set [5] (setting [13]), in data set [6] (setting [14]), in data set [1] (setting [22]) and in data set [7] (setting [20]) was above 10000 nM throughout.
As to `COc1cc(-c2nc(C(=O)c3ccc(F)cc3)c[nH]2)cc(OC)c1OC` [12eb, (4-fluorophenyl)(2-(3,4,5-trimethoxyphenyl)-1H-imidazol-4-yl)methanone], the IC50 in data set [3] (setting [11]), in data set [5] (setting [13]), in data set [6] (setting [14]), in [1] (setting [22]) and in data set [7] (setting [20]) was above 10000 nM in each case.
For `COc1ccc(-c2nc(C(=O)c3cc(OC)c(OC)c(OC)c3)c[nH]2)cc1OC` [12ha, (2-(3,4-dimethoxyphenyl)-1H-imidazol-4-yl)(3,4,5-trimethoxyphenyl)methanone], the 50% inhibitory concentration (IC50) in data set [2] (Mus musculus, B16-F1, 48 h, read-out: IC50 ± SEM (nM) B16-F1) was 1400 ± 200 nM; in data set [1] (setting [21]), 330 nM; in data set [9] (WM164, 48 h, read-out: IC50 ± SEM (nM) WM164), 191 ± 18 nM.
For `O=C(c1ccc(F)cc1)c1c[nH]c(-c2ccccc2C(F)(F)F)n1` [12ib, (4-fluorophenyl)(2-(2-(trifluoromethyl)phenyl)-1 H-imidazol-4-yl)methanone], the IC50 in data set [2] (setting [17]), in data set [3] (setting [11]), in data set [4] (setting [18]), in data set [5] (setting [13]), in [6] (setting [14]) and in data set [1] (setting [22]) was above 10000 nM in each case. Besides, the IC50 in data set [9] (setting [19]) and in [7] (setting [20]) was above 10000 nM in each case.
For `O=C(c1cc(O)c(O)c(O)c1)c1c[nH]c(-c2ccc(Cl)cc2)n1` [13fa, (2-(4-chlorophenyl)-1H-imidazol-4-yl)(3,4,5-trihydroxyphenyl)methanone], the 50% inhibitory concentration (IC50) was above 10000 nM in data set [3] (setting [11]); 10000 nM in [5] (setting [13]); 10000 nM in [6] (setting [14]); 3890 nM in [1] (setting [22]); 10000 nM in data set [7] (setting [20]).
With `O=C(c1ccc2[nH]ccc2c1)c1csc(-c2cc3ccccc3[nH]2)n1` [compound 21, (2-(1H-indol-2-yl)thiazol-4-yl)(1H-indol-5-yl)methanone], the IC50 in data set [2] (setting [23]) is 924 nM; in data set [3] (setting [24]), 216 nM; in data set [4] (setting [25]), 383 nM; in data set [5] (read-out: IC50 (nM), LNCaP), 314 nM; in data set [6] (setting [26]), 403 nM; in [1] (Prostate cell, summary of Tables 2, 3, 21, read-out: IC50 range over tested melanoma and prostate cell lines), 76 to 116 nM. The half-maximal inhibitory concentration (IC50) in data set [9] (setting [27]) stood at 408 nM; in [7] (setting [28]) it was 435 nM.
For the compound `COc1cc(C(=NC#N)c2csc(-c3ccccc3)n2)cc(OC)c1O` [compound 32, N-((4-hydroxy-3,5-dimethoxyphenyl)(2-phenylthiazol-4-yl)methylene)cyanamide], the IC50 in data set [2] (setting [23]) is above 10000 nM; in data set [3] (setting [24]) it was 1170 nM; in [4] (setting [25]) it was 2700 nM; in data set [5] (read-out: IC50 (nM), LNCaP) it was 1660 nM; in data set [6] (setting [26]) it was 2290 nM; in data set [9] (setting [27]), 2600 nM. Also, in data set [7] (setting [28]), the IC50 was 4600 nM.

As usually defined, the IC50 is the concentration that gives 50% inhibition.
